According to article PMC9833666, “Designing and identifying β-hairpin peptide macrocycles with antibiotic potential” (Science Advances, 2023):
Where two headings read alike, the source gives them in different places. Bridge positions count the residues as written; N and C are the ends. Peptide text beside a SMILES is read from it.

How the values were obtained:
[1] = system: Acinetobacter baumannii AB5075; conditions: for AB5075 MIC FBS: 100% fetal bovine serum; for AB5075 MIC MH: Mueller-Hinton
Method: MICs were performed by a modifiedClinical and Laboratory Standards Institute) procedure. […] Separately, E. coli W3110 or A. baumannii AB5075 was grown overnight in 5 ml of standard MH at 37°C. Cells from these cultures were diluted to a concentration of 5 × 10^5 to 6 × 10^5 cells/ml in either standard MH, MHII, RPMI, or fetal bovine serum, and 90 μl was added to each well of the 96-well plate containing diluted peptide. Plates were wrapped twice in parafilm and incubated at 37°C for 18 to 24 hours. Wells were examined by eye against wells with no bacteria for signs of growth. MICs were reported as the minimum concentration with no observable growth. In cases where triplicate samples differed, the concentration supported by the median of the three replicates was reported. […]
For consistency, all SynCH peptides were resuspended at 10 mg/ml in water. Peptides were then visually inspected for any lack of solubility (Data File S1). […]
We had this library commercially synthesized and tested its ability to inhibit the growth of Acinetobacter baumannii AB5075, a clinically isolated Carbapenem Resistant Acinetobacter (CRA) pathogen. MICs were performed in MH as well as 100% FBS, which is likely more representative of the in vivo environment. […]

[2] = system: Single-donor human red blood cells; experiment: Hemolysis assay; format: cell-based; conditions: hemolysis at 128 µg/ml, fold change relative to SySA-5
Method: Single-donor human red blood cells (Innovative Research, no. IWB3ALS) were washed in PBS and adjusted to a concentration of 1 × 10^9 cells/ml. Each peptide was added individually to 200 μl of cells at a concentration of either 300 μg/ml (SySA library) or 128 μg/ml (SySA-5 optimization library) in a 96-well polypropylene plate (Corning, 3879). PBS alone and 1% Triton X-100 were used for background normalization and 100% hemolysis, respectively. Each reaction was set up in triplicate. Plates were incubated for 3 hours at 37°C. Following incubation, samples were centrifuged at 800g for 20 min, and 100 μl of supernatant was transferred to a flat-bottom 96-well plate (Genesse, 25-104). Percent hemolysis for each sample was determined by normalizing the absorbance at 540 nm for each sample to the average background and dividing by the average absorbance for 1% Triton X-100 (100% hemolysis). Error bars represent 1 SD of triplicate samples.

Row | SMILES | AB5075 MIC FBS ([1]; replicate 1) | AB5075 MIC FBS ([1]; replicate 2) | AB5075 MIC FBS ([1]; replicate 3) | AB5075 MIC MH ([1]; replicate 1) | AB5075 MIC MH ([1]; replicate 2) | AB5075 MIC MH ([1]; replicate 3) | Fold Change Hemolysis [2] | AB5075 MIC FBS ([1]; median of triplicate) | AB5075 MIC MH ([1]; median of triplicate)
1 | CC(C)C[C@@H]1NC(=O)[C@H](CCCNC(=N)N)NC(=O)[C@H](C(C)C)NC(=O)[C@H](CCCNC(=N)N)NC(=O)[C@H](CC(C)C)NC(=O)[C@@H](N)CSSC[C@@H](C(=O)O)NC(=O)[C@H](C(C)C)NC(=O)[C@H](CCCNC(=N)N)NC(=O)[C@H](CC(C)C)NC(=O)[C@H](CCCNC(=N)N)NC(=O)[C@H](C(C)C)NC(=O)[C@H](CCCCN)NC(=O)[C@H](C(C)C)NC(=O)[C@@H]2CSSC[C@H](NC1=O)C(=O)N[C@@H](CC(N)=O)C(=O)N[C@@H](CCCNC(=N)N)C(=O)N[C@@H](CCCNC(=N)N)C(=O)N[C@@H](CCCNC(=N)N)C(=O)N2 [SySA-5.3] (H-CLRVRLCNRRRCVKVRLRVC-OH; disulfide 1-20, 7-12 (inferred); N-terminus and C-terminus assumed) | 128 µg/mL | 128 µg/mL | 128 µg/mL | 8 µg/mL | 8 µg/mL | 8 µg/mL | 1.8 |  | 
2 | CC(C)C[C@@H]1NC(=O)[C@H](CCCNC(=N)N)NC(=O)[C@H](C(C)C)NC(=O)[C@H](CCCNC(=N)N)NC(=O)[C@H](CC(C)C)NC(=O)[C@@H](N)CSSC[C@@H](C(=O)O)NC(=O)[C@H](C(C)C)NC(=O)[C@H](CCCNC(=N)N)NC(=O)[C@H](CC(C)C)NC(=O)[C@H](CCCNC(=N)N)NC(=O)[C@H](C(C)C)NC(=O)[C@H](CCCCN)NC(=O)[C@H](C(C)C)NC(=O)[C@@H]2CSSC[C@H](NC1=O)C(=O)N[C@@H](CCCNC(=N)N)C(=O)N[C@@H](CCCNC(=N)N)C(=O)N[C@@H](CCCNC(=N)N)C(=O)N[C@@H](CCCNC(=N)N)C(=O)N2 [SySA-5.4] (H-CLRVRLCRRRRCVKVRLRVC-OH; disulfide 1-20, 7-12 (inferred); N-terminus and C-terminus assumed) | 64 µg/mL | 64 µg/mL | 64 µg/mL | 4 µg/mL | 8 µg/mL | 8 µg/mL | 2.9 |  | 
3 | CC(C)C[C@@H]1NC(=O)[C@H](CO)NC(=O)[C@H](C(C)C)NC(=O)[C@H](CCCCN)NC(=O)[C@H](C(C)C)NC(=O)[C@@H]2CSSC[C@H](NC(=O)[C@H](CC(C)C)NC(=O)[C@H](CCCNC(=N)N)NC(=O)[C@H](C(C)C)NC(=O)[C@H](CCCNC(=N)N)NC(=O)[C@@H](N)CSSC[C@@H](C(=O)O)NC(=O)[C@H](CCCNC(=N)N)NC1=O)C(=O)N[C@@H](CC(N)=O)C(=O)N[C@@H](CCCNC(=N)N)C(=O)N[C@@H](CCCNC(=N)N)C(=O)N[C@@H](CCCNC(=N)N)C(=O)N2 [SySA-5.8] (H-CRVRLCNRRRCVKVSLRC-OH; disulfide 1-18, 6-11 (inferred); N-terminus and C-terminus assumed) | >128 µg/mL | >128 µg/mL | >128 µg/mL | 8 µg/mL | 8 µg/mL | 8 µg/mL | 0.8 |  | 
4 | CC(C)C[C@@H]1NC(=O)[C@H](CCCNC(=N)N)NC(=O)[C@H](C(C)C)NC(=O)[C@H](CCCCN)NC(=O)[C@H](C(C)C)NC(=O)[C@@H]2CSSC[C@H](NC(=O)[C@H](CC(C)C)NC(=O)[C@H](CCCNC(=N)N)NC(=O)[C@H](C(C)C)NC(=O)[C@H](CCCNC(=N)N)NC(=O)[C@@H](N)CSSC[C@@H](C(=O)O)NC(=O)[C@H](CCCNC(=N)N)NC1=O)C(=O)N[C@@H](CCCNC(=N)N)C(=O)N[C@@H](CCCNC(=N)N)C(=O)N[C@@H](CCCNC(=N)N)C(=O)N[C@@H](CCCNC(=N)N)C(=O)N2 [SySA-5.9] (H-CRVRLCRRRRCVKVRLRC-OH; disulfide 1-18, 6-11 (inferred); N-terminus and C-terminus assumed) | >128 µg/mL | >128 µg/mL | >128 µg/mL | 8 µg/mL | 8 µg/mL | 8 µg/mL | 0.6 |  | 
5 | CC(C)C[C@@H]1NC(=O)[C@H](CCCNC(=N)N)NC(=O)[C@H](C(C)C)NC(=O)[C@H](CCCCN)NC(=O)[C@H](CCCNC(=N)N)NC(=O)[C@H](CCCNC(=N)N)NC(=O)[C@H](CCCNC(=N)N)NC(=O)[C@H](CCCNC(=N)N)NC(=O)[C@H](CCCNC(=N)N)NC(=O)[C@H](CC(C)C)NC(=O)[C@H](CCCNC(=N)N)NC(=O)[C@H](C(C)C)NC(=O)[C@H](CCCNC(=N)N)NC(=O)[C@H](CC(C)C)NC(=O)[C@@H](N)CSSC[C@@H](C(=O)O)NC(=O)[C@H](C(C)C)NC(=O)[C@H](CCCNC(=N)N)NC1=O [SySA-5.12] (H-CLRVRLRRRRRKVRLRVC-OH; disulfide 1-18) |  |  |  |  |  |  | 3.7 | > 128 µg/mL | 4 µg/mL
6 | CC(C)C[C@@H]1NC(=O)[C@H](CO)NC(=O)[C@H](C(C)C)NC(=O)[C@@H]2CSSC[C@H](NC(=O)[C@H](CC(C)C)NC(=O)[C@H](CCCNC(=N)N)NC(=O)[C@H](C(C)C)NC(=O)[C@H](CCCNC(=N)N)NC(=O)[C@H](CC(C)C)NC(=O)[C@@H](N)CSSC[C@@H](C(=O)O)NC(=O)[C@H](C(C)C)NC(=O)[C@H](CCCNC(=N)N)NC1=O)C(=O)N[C@@H](CCCNC(=N)N)C(=O)N[C@@H](CCCNC(=N)N)C(=O)NCC(=O)N[C@@H](CCCNC(=N)N)C(=O)N2 [SySA-5.13] (H-CLRVRLCRRGRCVSLRVC-OH; disulfide 1-18, 7-12 (inferred); N-terminus and C-terminus assumed) | >128 µg/mL | >128 µg/mL | >128 µg/mL | 32 µg/mL | 8 µg/mL | 16 µg/mL | 3.2 |  | 
7 | CC(C)C[C@@H]1NC(=O)[C@H](CCCNC(=N)N)NC(=O)[C@H](C(C)C)NC(=O)[C@@H]2CSSC[C@H](NC(=O)[C@H](CC(C)C)NC(=O)[C@H](CCCNC(=N)N)NC(=O)[C@H](C(C)C)NC(=O)[C@H](CCCNC(=N)N)NC(=O)[C@H](CC(C)C)NC(=O)[C@@H](N)CSSC[C@@H](C(=O)O)NC(=O)[C@H](C(C)C)NC(=O)[C@H](CCCNC(=N)N)NC1=O)C(=O)N[C@@H](CCCNC(=N)N)C(=O)N[C@@H](CCCNC(=N)N)C(=O)N[C@@H](CCCNC(=N)N)C(=O)N[C@@H](CCCNC(=N)N)C(=O)N2 [SySA-5.14] (H-CLRVRLCRRRRCVRLRVC-OH; disulfide 1-18, 7-12 (inferred); N-terminus and C-terminus assumed) | 64 µg/mL | 64 µg/mL | 64 µg/mL | 8 µg/mL | 4 µg/mL | 4 µg/mL | 5.6 |  | 
8 | CC(C)C[C@@H]1NC(=O)[C@H](CO)NC(=O)[C@H](C(C)C)NC(=O)[C@H](CCCCN)NC(=O)[C@@H]2CSSC[C@H](NC(=O)[C@H](CC(N)=O)NC(=O)[C@H](CC(C)C)NC(=O)[C@H](CCCNC(=N)N)NC(=O)[C@H](C(C)C)NC(=O)[C@H](CCCNC(=N)N)NC(=O)[C@@H](N)CSSC[C@@H](C(=O)O)NC(=O)[C@H](CCC(N)=O)NC1=O)C(=O)N[C@@H](CCCNC(=N)N)C(=O)N[C@@H](CCCNC(=N)N)C(=O)NCC(=O)N[C@@H](CCCNC(=N)N)C(=O)N2 [SySA-5.15] (H-CRVRLNCRRGRCKVSLQC-OH; disulfide 1-18, 7-12 (inferred); N-terminus and C-terminus assumed) | >128 µg/mL | >128 µg/mL | >128 µg/mL | 16 µg/mL | 16 µg/mL | 16 µg/mL | 1.3 |  | 
9 | CC(C)C[C@@H]1NC(=O)[C@H](CO)NC(=O)[C@H](C(C)C)NC(=O)[C@H](CCCCN)NC(=O)[C@@H]2CSSC[C@H](NC(=O)[C@H](CCCNC(=N)N)NC(=O)[C@H](CC(C)C)NC(=O)[C@H](CCCNC(=N)N)NC(=O)[C@H](C(C)C)NC(=O)[C@H](CCCNC(=N)N)NC(=O)[C@@H](N)CSSC[C@@H](C(=O)O)NC(=O)[C@H](CCCNC(=N)N)NC1=O)C(=O)N[C@@H](CCCNC(=N)N)C(=O)N[C@@H](CCCNC(=N)N)C(=O)NCC(=O)N[C@@H](CCCNC(=N)N)C(=O)N2 [SySA-5.16] (H-CRVRLRCRRGRCKVSLRC-OH; disulfide 1-18, 7-12 (inferred); N-terminus and C-terminus assumed) | >128 µg/mL | >128 µg/mL | >128 µg/mL | 32 µg/mL | 64 µg/mL | 32 µg/mL | 1.3 |  | 
